Laboratory results: US20020028847A1, “Method for treatment of fibrosis related diseases by the administration of prostacyclin derivatives” (Fibrogen, Inc., priority 1998, published 2002)
Like-named read-outs stand apart in the source and are kept apart here.

Key:
metastasis = conditions: several different animal models; cited from earlier work
scleroderma fibroblasts = test: ELISA for collagen (N propeptide of Type I collagen α chain) in cultured skin fibroblasts; type: cell-based, human
Description: 4 mm punch skin biopsies were taken from the forearms of healthy volunteers and from patients with active diffuse scleroderma. Fibroblasts from these biopsies were subcultured to passage 6 in Dulbecco's modified eagle medium with 10% fetal calf serum and Pen Strep solution and grown to confluence. Twenty-four hours before assay, the fibroblasts were switched to serum free media with exchange of media every eight (8) hours. Upon switching to serum free medium (L-ascorbic acid phosphate magnesium salt n-hydrate) (C6H6O9P) 3/2 Mg was added at a final concentration of 30 μg/ml. The supernatant fluid from the above described culture was diluted 1/100 in 0.1 M NaHCO3 and 100 μl of said diluted culture was added to each well of a 96 well maxisorp plate. The plate was then left at room temperature for two hours on a plate shaker. The plate was then washed once in PBS. 200 μl of 2% BSA in PBS was then added and the plate was left for two hours to block non-specific binding. The plate was then washed four times in PBS and first layer antibody, anti-N-procollagen I rabbit polyclonal, diluted 1/2000 in 1% BSA PBS, was added at 100 μl/well. The plate was left for two (2) hours at room temperature and then washed four times in PBS. A second layer antibody, HRP labeled goat anti-rabbit IgG 1/2000, was then added and left for two hours. […] The plate was then read on a multiwell analyser.

CTGF = CTGF ELISA on cultured skin fibroblasts; type: cell-based, human; conditions: scleroderma fibroblasts
Description: 4 mm punch skin biopsies were taken from the forearms of healthy volunteers and from patients with active diffuse scleroderma. Fibroblasts from these biopsies were subcultured to passage 6 in Dulbecco's modified eagle medium with 10% fetal calf serum and Pen Strep solution and grown to confluence. Twenty-four hours before assay, the fibroblasts were switched to serum free media with exchange of media every eight (8) hours. Upon switching to serum free medium (L-ascorbic acid phosphate magnesium salt n-hydrate) (C6H6O9P) 3/2 Mg was added at a final concentration of 30 μg/ml. The following protocol was used for the CTGF ELISA: 1. Plate antigen on Nunc immuno plase Maxisorp surface (catalog number 442402). 2. CTGF standard curve by two fold serial dilution in 6 triplicates (see Table 1, below). 3. Add 50 μl of sample to each well. 4. Leave wells for 2 hours at room temperature. 5. Wash wells 4 times with PBSa. 6. Add first layer antibody (pAB2 rabbit anti-human CTGF (0.8 mg/ml)( 1/1280)) diluted to 625 ng/ml in blocking buffer (1% BSA/0.05% tween20/PBS). 7. Add 50 μl to each well and leave at room temperature for one hour. 8. Wash wells five times with PBS. 9. Add second layer antibody donkey anti-rabbit IgG, HRP linked whole antibody (Amersham Life Sciences, Catalog No. NA 934 diluted 1/3200 in block buffer). 10. […] Stop reaction with 50 μl per well of 1M H2SO4 and read OD at 450 nm.

CTGF promoter = test: CTGF promoter/luciferase transfection assay in normal human fibroblasts; type: cell-based; conditions: measured over a twenty-four hour period
Protocol: Normal human fibroblasts were grown to 80% confluence in a 6 well plate. 1 μg of DNA (CTGF promoter/luciferase) was added with 3 μl of FuGene 6 transfection reagent (Boehringer Mannheim 1814443); wherein the FuGene 6 was added dropwise to serum free culture medium and left at room temperature for five minutes and added to 1 µg of DNA in a separate tube for fifteen minutes. The DNA/FuGene 6 solution was then added dropwise to the cell culture by spreading around each well and swirling the flasks. The cell culture was returned to an incubator and the cells were grown again to confluence, approximately 36 hours. The cells were then switched to a serum free medium with ascorbate and left overnight. The cells were then treated for 24 hours as follows: control; Iloprost 1000 pg/ml; TGF-β 20 ng/ml; and TGF-β 20 ng/ml+Iloprost 1000 pg/ml.
After 24 hours the cells were lysed with Promega reporter lysis buffer (E 397A) at room temperature, 400 μl per […] and left for 15 minutes at room temperature. A 50 μl sample of the lysate was drawn and 100 μl of luciferase assay reagent (Promega E 148A) was added. Chemiluminensence was read using a plate reader program ARQ.1PT software micro P1.00.

CTGF RNA = test: Northern blot for CTGF RNA; type: cell-based; conditions: cells treated with TGF-β and iloprost
Protocol: Cultured cells are grown to confluence on 100 mm plates. The cells were then serum starved with ascorbate for 24 hours, after which conditioned medium with TGF-β and Iloprost was added. The cells were then lysed with TRIzol (Gibco catalog no. 15596-018) wherein 1 ml per plate of the TRIzol was added and the plate was left at room temperature for ten minutes. 200 μl of chloroform was then added and the cells were vortexed for 20 seconds. The cells were then left alone for 5 minutes at room temperature and then centrifuged in a microcentrifuge tube for 10 minutes at maximum speed at 4° C. The upper layer was then removed (layer containing RNA) and then mixed with an equal volume of isopropanol. The mixture was then centrifuged for 10 minutes to form a pellet of RNA. 0.5 ml of 70% ethanol in RNAse free purified water was then added to the pellet. The ethanol was then tipped off and the pellet was left to dry. After five minutes, the pellet was resuspended in 20 μl of RNAse free water and kept on ice. To assay the RNA using a photospectometer, a sample of the RNA was diluted 1/500 (volume 1 ml) and read at OD 260 nm (to measure RNA) and 280 nm (to measure protein). RNA concentration was calculated in terms of μg/μl=(OD260×40×dilution)/1000. […]

[1] = test system: platelet thrombus formation; conditions: animals with thrombin induced thrombosis; cited from earlier work
Raynaud's phenomena = conditions: patients; cited from earlier work
[2] = test system: renal interlobar and cortical arteries; conditions: scleroderma patients, iloprost infusions; cited from earlier work

Row | Compound | inhibition of metastasis (metastasis) | excessive production of collagen (scleroderma fibroblasts) | excessive production of collagen (scleroderma fibroblasts; listed as iloprost) | CTGF production (CTGF) | CTGF production (CTGF; listed as iloprost) | time of most pronounced inhibitory effect on CTGF production (CTGF promoter) | TGF-β induced synthesis of CTGF RNA (CTGF RNA) | TGF-β induced synthesis of CTGF RNA (CTGF RNA; listed as iloprost) | platelet thrombus formation [1] | safety and efficacy in Raynaud's phenomena (Raynaud's phenomena) | resistive index of the renal interlobar and cortical arteries [2]
1 | CCC#CC[C@H](C)[C@H](O)C#C[C@@H]1[C@H]2C/C(=C/COCC(=O)O)C[C@H]2C[C@H]1O [cicaprost] | effectively inhibit metastasis | – | – | – | – | – | – | – | – | – | –
2 | CC#CCC(C)[C@H](O)/C=C/[C@@H]1[C@H]2C/C(=C/CCCC(=O)O)C[C@H]2C[C@H]1O (stereo partly drawn) [Iloprost, 5-(E)-(1S,5S,6R)-7-hydroxy-6[(E)-(3S,4RS)-3-hydroxy-4-methyl-1-octen-6-inyl]bicyclo[3.3.0]octen-3-ylidene pentanoic acid] | – | inhibited | capable of inhibiting collagen production | decrease in CTGF production | capable of inhibiting collagen production and CTGF production | most pronounced between hour 1 and hour 3 | inhibit CTGF production | blocked | prevent platelet thrombus formation | safe and effective therapy | reduction of the resistive index
3 | CCC#CC[C@H](C)[C@H](O)C#C[C@@H]1[C@H]2C/C(=C/COCCCC(=O)O)C[C@H]2C[C@H]1O [eptaloprost] | antimetastically acting agents | – | – | – | – | – | – | – | – | – | –
